Assay results published in the supplement of paper PMC10307832.

What was measured:
Test in all cases: relative viability (nuclei count vs DMSO), 5 days (fraction); higher = more cells survive
Vismodegib + Foretinib = compound: CS(=O)(=O)c1ccc(C(=O)Nc2ccc(Cl)c(-c3ccccn3)c2)c(Cl)c1 [Vismodegib] + COc1cc2c(Oc3ccc(NC(=O)C4(C(=O)Nc5ccc(F)cc5)CC4)cc3F)ccnc2cc1OCCCN1CCOCC1 [Foretinib] (partner 0.25 µM)
Procedure, shortened: (§1)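 Relative viability divides the nuclei count in treated wells by that in vehicle wells. Lung cancer cell lines were seeded in 1536-well plates, dosed by pin tool the next day, and fixed and stained after 5 days in one step with final 0.05% Triton X-100, 1% formaldehyde and 1 ug/ml Hoechst. Dosing was a single drug or a fixed anchor-drug dose plus five library-drug doses (not always all listed) in √10 steps, and values are medians of duplicate plates imaged at 4×.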

Ruxolitinib + Dasatinib = compound: N#CC[C@H](C1CCCC1)n1cc(-c2ncnc3[nH]ccc23)cn1 [Ruxolitinib] + Cc1nc(Nc2ncc(C(=O)Nc3c(C)cccc3Cl)s2)cc(N2CCN(CCO)CC2)n1 [Dasatinib] (partner 0.075 µM)
Procedure, shortened: as §1

Vismodegib + Pemetrexed = compound: CS(=O)(=O)c1ccc(C(=O)Nc2ccc(Cl)c(-c3ccccn3)c2)c(Cl)c1 [Vismodegib] + Nc1nc2[nH]cc(CCc3ccc(C(=O)N[C@@H](CCC(=O)O)C(=O)O)cc3)c2c(=O)[nH]1 [Pemetrexed] (partner 0.2 µM)
Procedure, shortened: as §1

Ruxolitinib + Pemetrexed = compound: N#CC[C@H](C1CCCC1)n1cc(-c2ncnc3[nH]ccc23)cn1 [Ruxolitinib] + Nc1nc2[nH]cc(CCc3ccc(C(=O)N[C@@H](CCC(=O)O)C(=O)O)cc3)c2c(=O)[nH]1 [Pemetrexed] (partner 0.2 µM)
Procedure, shortened: as §1

Cell Line	relative viability (Vismodegib + Foretinib; first compound 0.08 µM)	relative viability (Vismodegib + Foretinib; first compound 0.253 µM)	relative viability (Vismodegib + Foretinib; first compound 0.8 µM)	relative viability (Vismodegib + Foretinib; first compound 2.53 µM)	relative viability (Vismodegib + Foretinib; first compound 8 µM)	relative viability (Ruxolitinib + Dasatinib; first compound 0.08 µM)	relative viability (Ruxolitinib + Dasatinib; first compound 0.253 µM)	relative viability (Ruxolitinib + Dasatinib; first compound 0.8 µM)	relative viability (Ruxolitinib + Dasatinib; first compound 2.53 µM)	relative viability (Ruxolitinib + Dasatinib; first compound 8 µM)	relative viability (Vismodegib + Pemetrexed; first compound 0.08 µM)	relative viability (Vismodegib + Pemetrexed; first compound 0.253 µM)	relative viability (Vismodegib + Pemetrexed; first compound 0.8 µM)	relative viability (Vismodegib + Pemetrexed; first compound 2.53 µM)	relative viability (Vismodegib + Pemetrexed; first compound 8 µM)	relative viability (Ruxolitinib + Pemetrexed; first compound 0.253 µM)	relative viability (Ruxolitinib + Pemetrexed; first compound 0.8 µM)	relative viability (Ruxolitinib + Pemetrexed; first compound 2.53 µM)	relative viability (Ruxolitinib + Pemetrexed; first compound 8 µM)	relative viability (Ruxolitinib + Pemetrexed; first compound 0.08 µM)
PC-3 [JPC-3]	1.08	1.01	0.965	0.993	1.03	0.684	1.06	0.989	0.872	0.883	1.05	1.03	1.13	1.16	0.651	1.13	1.18	1.11	0.907	–
PC-14	0.91	0.948	0.984	0.998	0.963	–	0.334	0.349	0.155	0.0674	0.148	0.135	0.133	0.144	0.136	0.117	0.122	0.139	0.12	–
RERF-LC-KJ	0.826	0.848	0.852	0.85	0.821	0.886	0.742	0.942	0.737	0.635	0.491	0.454	0.468	0.508	0.479	0.485	0.505	0.465	0.456	0.471
SK-LU-1	0.76	0.821	0.875	0.753	0.818	0.206	0.166	0.166	0.135	0.164	0.971	1.03	0.982	0.909	0.845	1.02	1.01	0.919	0.792	1.03
SK-MES-1	0.865	0.91	0.961	0.889	0.918	0.313	0.372	0.315	0.199	0.285	0.853	0.928	0.871	0.972	0.825	0.865	1.01	0.849	0.823	1.03
SW 900	0.743	0.622	0.761	0.655	0.857	0.675	0.487	0.542	0.403	0.489	0.496	0.472	0.495	–	0.496	0.493	0.485	0.466	0.532	0.467
SW 1573	0.994	0.908	0.907	0.895	1.01	0.742	0.459	0.72	0.357	0.237	0.79	0.894	0.764	0.855	0.865	0.855	0.957	0.768	0.867	0.878
